Reference: patent US20230226036A1, “ARIMOCLOMOL FOR TREATING GAUCHER DISEASE” (ORPHAZYME A/S, priority 2020, published 2023)
Entries after “also recorded” stand apart in the source; their conditions may differ.

What was measured:
[1] = system: liver size; test: Liver size by ultrasound, phase 2 trial in Gaucher disease type 1 or 3; format: in vivo, human; details: 6 months, 300/600/1200 mg/day, dose-trend effect p<0.05, FIG. 3
Method: (§1) Eligible GD1 and GD3 patients were randomised into 4 groups on a 1:1:1:1 basis to receive arimoclomol 300 mg/day, arimoclomol 600 mg/day, arimoclomol 1200 mg/day, or placebo treatment (3 times daily [t.i.d] dosing).
(§2) The imaging efficacy endpoint consisted of the change in the size (centimetres) of the liver and spleen (assessed by ultrasound) at 6 months and bi-annually until trial end. Clinical GD severity endpoints (all patients): • Gaucher disease Type 1 Disease Severity Scoring System (GD1-DS3) • Modified Severity Scoring Tool (mSST)
(§3) Secondary efficacy endpoints, including change in weight and height, change in liver size, change in spleen size, and change in biomarkers (blood and CSF) relative to baseline (where appropriate) were analysed using an ANCOVA model with treatment group (dose actually received at Visit 3 following possible dosing adjustment based on PK assessment at Visit 2, or placebo) and corresponding baseline value as covariate. For the biomarker analysis, appropriate data transformation was conducted before statistical analysis, if necessary.

[2] = system: Gaucher's disease type 1; test: Clinical GD1 severity score (GD1-DS3), phase 2 trial in Gaucher disease; format: in vivo, human; details: 6 months, statistical significance not achieved
Method: as §2, with “Eligible GD1 and GD3 patients were randomised into 4 groups on a 1:1:1:1 basis to receive arimoclomol 300 mg/day, arimoclomol 600 mg/day, arimoclomol 1200 mg/day, or placebo treatment (3 times daily [t.i.d] dosing). The” for “The”

[3] = system: haemoglobin; test: Haemoglobin in patients anaemic at baseline, phase 2 trial in Gaucher disease; format: in vivo, human; details: highest dose group (1200 mg/day), time-trend analysis p<0.05, FIG. 5
Method: as §1
(§4) The exploratory biomarker endpoints, as measured in the blood, included: • Change* in plasma glucosylsphingosine (GlcSph) levels at 6 months and every 6 months until trial end. • Change* in haemoglobin, ferritin, and platelet levels at 6 months and every 6 months until trial end. • Change* in GBA enzyme activity (leukocytes) at 6 months and every 6 months until trial end. • Change* in serum macrophage inflammatory protein-1b (MIP-1P; cytokine for bone involvement) at 6 months and every 6 months until trial end.
as §3

[4] = system: spleen size; test: Spleen size by ultrasound, phase 2 trial in Gaucher disease type 1 or 3; format: in vivo, human; details: 6 months, 300/600/1200 mg/day, dose trend analysis p<0.10, FIG. 4
Method: as §1, §2, §3

[5] = system: serum chitotriosidase activity; test: Serum chitotriosidase activity, phase 2 trial in Gaucher disease type 1 or 3 (primary endpoint); format: in vivo, human; details: for Relative change in chitotriosidase activity from baseline versus placebo: 6 months, all dosage groups, significance not achieved (p=0.4), FIG. 2
Method: This is a placebo-controlled, randomised, double-blinded trial evaluating the response of 3 dose levels of arimoclomol on various pharmacodynamic (PD) biomarkers in blood and cerebrospinal fluid (CSF) as indicators of enhanced glucocerebrosidase (GBA) enzyme activity in GD1 and GD3.
as §1
The primary efficacy endpoint of the trial was the percentage change in serum chitotriosidase activity (marker of macrophage activation) from baseline to 6 months, where baseline was defined as the mean value of the predose visits (Visit 1 and Visit 2).
The primary efficacy endpoint was analysed using an Analysis of Covariance (ANCOVA) model on the ITT population. The log of chitotriosidase activity was used in the analysis. The response variable for ANCOVA model was the log of chitotriosidase activity at 6 months, and the independent variables included IMP dose as randomized (300 mg/day, 600 mg/day, 1200 mg/day, and 0 mg/day [for placebo]) as a continuous variable, GD type, and log of baseline chitotriosidase. Supportive analysis was conducted using the same model but with the dose actually received at Visit 3 following possible dosing adjustment based on PK assessment at Visit 2.

[6] = background statement; cited from earlier work
[7] = system: glycosylsphingosine (lyso-Gb1); test: Plasma glycosylsphingosine (lyso-Gb1), phase 2 trial in Gaucher disease; format: in vivo, human; details: after 6 months, statistical significance not achieved, FIG. 6
Method: as §1, §4, §3

[8] = Plasma exposure (AUC0-8) estimated by population PK modelling in GD1/GD3 patients; format: in vivo, human; details: 300, 600, 1200 mg/day t.i.d. oral (weight-adjusted), FIG. 1
Text: All patients underwent an arimoclomol single-dose (100-mg single dose for the 300-mg/day treatment group, 200-mg single dose for the arimoclomol 600-mg/day treatment group, 400-mg single dose for the arimoclomol 1200-mg/day treatment group, or corresponding dose per kg for paediatric patients prior to the effective date of this protocol. Single dose pharmacokinetics (PK) was done with corresponding dose per kg for all patients randomised after the effective date of this protocol) pharmacokinetic (PK) evaluation at Visit 2 following randomization to confirm the suitability (in terms of target investigational medicinal product (AUC0-8—area under the curve [AUC] from time 0 to 8 hours [AUC0-8]) of the selected doses in the trial. Following the single dose, blood samples for PK analysis were collected at predose, and 0.5, 1, 2, 4, and 8 hours postdose. […] The corresponding data was evaluated by an independent assessor to verify the AUC0-8. […]
In the event that the AUC was above the target, or an unexpected profile which could potentially impact the safety of the patient was obtained, and the patient required a dose reduction, the patient was dispensed a reduced dose of IMP (blinded) at Visit 3. […] Additional blood samples for quantitative population PK analysis of arimoclomol were collected predose and at 0.5 hours postdose at Visit 5, and predose and 1.5 hours postdose at Visit 7. […]

Question: Which results are given for [O-][n+]1cccc(/C(Cl)=N/OC[C@H](O)CN2CCCCC2)c1 [arimoclomol, (+)-(R)—N-[2-hydroxy-3-(1-piperidinyl)-propoxy]-pyridine-1-oxide-3-carboximidoyl chloride]?
Answer: Liver size relative to placebo [1]: dose-dependent effect; also recorded: Clinically meaningful dose-dependent reductions; Clinical GD1 severity score [2]: directional dose-dependent reduction; Haemoglobin over time [3]: time-dependent increase in haemoglobin; Spleen size relative to placebo [4]: dose-dependent effect; also recorded: Clinically meaningful dose-dependent reductions; Relative change in chitotriosidase activity from baseline versus placebo [5]: relative reduction in chitotriosidase activity from baseline; Relative change in chitotriosidase activity from baseline versus placebo ([5]; listed as Arimoclomol): relative reduction in serum chitotriosidase activity; Change in chitotriosidase activity across treatment groups ([5]; baseline to 6 months, 300/600/1200 mg/day vs. placebo): lower increase in arimoclomol groups vs. placebo; Blood-brain barrier passage [6]: ability to cross the blood-brain barrier; Change from baseline of plasma glycosylsphingosine (lyso-Gb1) [7]: trend towards a dose-dependent increase; Plasma exposure (AUC) [8]: dose-dependent increase in plasma exposure
